How the values were obtained:
[1] = system: bladder cancer cells; experiment: Growth inhibition (Cell Counting Kit-8), bladder cancer cells; format: cell-based; settings: 24 hours, 0.5% FBS
Method: In order to verify the growth inhibitory effect of Compound 1 on various normal and cancer cell lines, 25 types of cell lines listed in Table 7 below were tested. In detail, each cell was seeded at a density of 2 × 10^4 cells/well in a 96-well plate and cultured for 24 hours, and then the medium was replaced with a medium comprising 0.5% (for cancer cells) or 10% (for normal cells) FBS, and Compound 1 was treated at various concentrations. 24 hours later, 10 µL of Cell Counting Kit-8 (Dojindo Molecular Technologies) was added, and 1 hour later, absorbance at 480 nm was measured using a microplate reader (TECAN SPARK), and the results are shown in FIGS. 15 to 21.

[2] = system: KKAy diabetes mice; experiment: Intraperitoneal glucose tolerance test (IPGTT) in diabetes animal model; format: in vivo; settings: 0.5 mg/kg once a day by oral gavage, 10 weeks; 1 g/kg glucose i.p.; vs vehicle group
Method: A vehicle (10% DMSO + 0.5% methylcellulose) and the compound of Example 1 (Compound 1) were administered to 6-week-old male KKAy diabetes mice (n = 6 per group) at a dose of 0.5 mg/kg once a day by oral gavage. At 10 weeks of administration, an intraperitoneal glucose tolerance test (IPGTT) was performed by intraperitoneally administering 1 g/kg of glucose, and the results are shown in FIG. 1.

[3] = system: C57BL6J JmcSlc mice; experiment: Inflammatory bowel disease animal model (DSS-induced colitis); format: in vivo
Method: Colitis was induced in 8-week-old male C57BL6J JmcSlc mice by feeding 3.5% dextran sodium sulfate (DSS) ad libitum for 9 days, and then replacing the same with normal drinking water. The vehicle and Compound 1 (0.5 mg/kg or 1 mg/kg) were orally administered to the experimental animal model prepared as described above daily from 2 days before DSS drinking until the end of drinking. In order to determine the degree of colonic inflammation, the degree of longitudinal contraction of the isolated colon was measured, and the histological scores were confirmed through H&E staining, which is shown in FIG. 6. Furthermore, total RNA was isolated from the isolated colon, cDNA was synthesized, and the expression levels of representative cytokines (IFNγ, IL-1β, IL-4, IL-6, IL-10, IL-12β, IL-17a, and TNFα) were measured and compared using qPCR, and the results are shown in FIG. 7.

[4] = system: CT26 colorectal cancer cell line; experiment: Anticancer efficacy in CT26 colorectal cancer tumor model; format: in vivo, nude mice; settings: 1.0 mg/kg
Method: A colorectal cancer model was established by subcutaneously transplanting CT26 colorectal cancer cell line into nude mice. The colorectal cancer model was divided into two groups: vehicle administration group and Compound 1 administration group. […] Similar to Experimental Example 13, tumor size was calculated before drug administration and on days 3, 7, 10, 14, 18, 22, and 24 after drug administration, and body weight was measured before drug administration and on days 7, 14 and 22 after drug administration, which are shown in FIG. 22.
Additionally, tumors were extracted from the colorectal cancer model, fixed with 4% PFA solution, and subjected to TUNEL assay to determine the degree of apoptosis induction, and the results are shown in FIG. 22. As shown in the middle of FIG. 22, 28% apoptosis was induced in the vehicle administration group, and 72% apoptosis was induced in the 1.0 mg/kg compound 1 administration group, and statistical significance between these values was also verified (*p<0.01 versus the vehicle administration group).

[5] = system: PDHE1α S293; experiment: In vitro PDH S293 phosphorylation inhibition (Western blot) in HEK293 cells; format: cell-based, human; settings: Homo sapiens, 5 hours
Method: HEK293 cells, which are human embryonic kidney cells, were seeded at a density of 2 × 10^6 in a 60 mm dish, and cultured for 24 hours. After replacing the medium with a medium comprising 0.5% FBS, the compounds prepared according to Examples 1 to 54 were treated at various concentrations. 5 hours later, the cells were scraped off and collected into a 15 mL conical tube and centrifuged at 1500 rpm for 10 minutes. The supernatant was discarded, the resultant was washed with 1× PBS, and transferred to a 1.5 mL e-tube, followed by centrifugation at 10,000 rpm for 5 minutes. The supernatant was discarded again, a lysis buffer was added, and the cells were lysed on ice for 30 minutes. The cells were vortexed every 10 minutes to completely lyse, and centrifuged again at 10,000 rpm for 15 minutes at 4°C, and the supernatant was collected. The protein in the supernatant was quantified using BCA technique, and the sample buffer was added to 20 µg of protein and allowed to react at 70°C for 5 minutes. The expression of PDHE1α S232, S293, S300, and total PDHE1α proteins was detected by Western blot, and the resulting PDH S293 phosphorylation inhibition is shown in Table 6. […]

[6] = system: bone marrow-derived dendritic cells (BMDCs); experiment: Inflammasome formation (IL-1β ELISA) in LPS/ATP-treated dendritic cells; format: cell-based, C57BL6 mice; settings: for IL-1β: LPS 500 ng/mL + 5 mM ATP, supernatant; for inhibited IL-1β expression: compared to vehicle control group
Method: Furthermore, to verify the anti-inflammatory effect at a cellular level, bone marrow cells of C57BL6 mice were treated with 20 ng/mL of GM-CSF and IL-4, and 6 days later, bone marrow-derived dendritic cells (BMDCs) were collected. The BMDCs were prepared at 1×10^6 cells/mL and stabilized for one day, and then subsequent experiments were conducted. The above dendritic cells were treated with 500 ng/mL of LPS for 3 hours to prime pro-IL1 β, and then treated with Compound 1 (0 µM, 0.01 µM, 0.1 µM, 1 µM, and 10 µM) for 15 minutes. Next, 5 mM of ATP was treated, which induces inflammasome formation by converting pro-IL1β to IL-1β through pro-IL1β cleavage, and 30 minutes later, the concentration of IL-1β in the supernatant was measured by ELISA, and the results are shown in FIG. 10 and Table 3.

[7] = qPCR, vs vehicle administration group

CC(C(=O)NNc1ccc(F)cc1)n1cc(-c2cc(F)cc3c2-c2ccccc2C3(O)C(F)(F)F)cn1 (stereo not shown) [Example 1, 2-(4-(2-fluoro-9-hydroxy-9-(trifluoromethyl)-9H-fluoren-4-yl)-1H-pyrazol-1-yl)-N'-(4-fluorophenyl)propanehydrazide]
concentration at which viability began to rapidly decrease to 70% or less [1]: less than 1.2 µM
blood glucose increase (IPGTT) [2]: significantly suppressed
longitudinal contraction of colon ([3]; 0.5 mg/kg and 1 mg/kg oral daily, vs vehicle, effect increased with dose): alleviated
colonic epithelial cell recovery (H&E staining) ([3]; 0.5 mg/kg oral daily, DSS): slight
colonic epithelial cell recovery (H&E staining) ([3]; 1 mg/kg oral daily, DSS): remarkable epithelial cell recovery
tissue score (histological score) ([3]; 1 mg/kg oral daily, DSS): lowest score
mRNA expression of IFNγ (colon) [3, 7]: significantly reduced
mRNA expression of IL-4 (colon) [3, 7]: increased
mRNA expression of IL-6 (colon) [3, 7]: significantly reduced
mRNA expression of IL-12b (colon) [3, 7]: significantly reduced
mRNA expression of IL-17a (colon) [3, 7]: significantly reduced
mRNA expression of TNFα (colon) [3, 7]: significantly reduced
decrease in tumor growth (tumor volume) compared to vehicle ([4]; day 24): 55%
change in the body weight ([4]; days 7, 14, 22): Neither the vehicle administration group nor the compound 1 administration group showed any change in the body weight
apoptosis induced in tumor (TUNEL assay) ([4]; vehicle group 28%): 72%
inhibition at 1 µM [5]: ≥ 80%
IL-1β ([6]; 0.01 µM): 1131.823 pg/mL
IL-1β ([6]; 0.1 µM): 1009.825 pg/mL
inhibited IL-1β expression ([6]; 0.1 µM): about 83.802%
IL-1β ([6]; 1 µM): 907.2636 pg/mL
IL-1β ([6]; 10 µM): 647.6982 pg/mL
inhibited IL-1β expression ([6]; 10 µM): about 53.7504%

— patent EP4596537A1, “NOVEL FLUORENE DERIVATIVE COMPOUND AND USE THEREOF” (JD Bioscience Inc., priority 2022, dated 2024)
